Values of other authors, collected in paper PMC3848336, “Aurora Isoform Selectivity: Design and Synthesis of Imidazo[4,5-b]pyridine Derivatives as Highly Selective Inhibitors of Aurora-A Kinase in Cells” (Journal of Medicinal Chemistry, 2013).

Test system: Aurora-A/N-Myc complex
Set-up: method as in PMID 23792191
Conditions: cited from earlier work

Compound	disruption of the Aurora-A/N-Myc complex
O=C(O)[C@]1(Cc2cccc(Nc3nccs3)n2)CC[C@@H](Oc2cccc(Cl)c2F)CC1 [MK-5108]	not disrupted
O=C(O)c1ccc(Nc2ncc3c(n2)-c2ccc(Cl)cc2C(c2c(F)cccc2F)=NC3)cc1 [MLN8054]	disrupt the Aurora-A/N-Myc complex
COc1cc(Nc2ncc3c(n2)-c2ccc(Cl)cc2C(c2c(F)cccc2OC)=NC3)ccc1C(=O)O [MLN8237]	disrupt the Aurora-A/N-Myc complex
